Laboratory results from publication PMC7559934, “Characterization of Resveratrol, Oxyresveratrol, Piceatannol and Roflumilast as Modulators of Phosphodiesterase Activity. Study of Yeast Lifespan” (Pharmaceuticals, 2020).

Columns and labels:
[1] = molecular target: T1, yPDE2 (high-affinity phosphodiesterase type 2) (Saccharomyces cerevisiae, UniProt P06776); assay: HPLC-UV assay of cAMP hydrolysis; Ki converted from I50 (competitive equation); type: biochemical; settings: read-out: Inhibitors
T1 construct: gene PDE2
T1 sequence (P06776 1-526): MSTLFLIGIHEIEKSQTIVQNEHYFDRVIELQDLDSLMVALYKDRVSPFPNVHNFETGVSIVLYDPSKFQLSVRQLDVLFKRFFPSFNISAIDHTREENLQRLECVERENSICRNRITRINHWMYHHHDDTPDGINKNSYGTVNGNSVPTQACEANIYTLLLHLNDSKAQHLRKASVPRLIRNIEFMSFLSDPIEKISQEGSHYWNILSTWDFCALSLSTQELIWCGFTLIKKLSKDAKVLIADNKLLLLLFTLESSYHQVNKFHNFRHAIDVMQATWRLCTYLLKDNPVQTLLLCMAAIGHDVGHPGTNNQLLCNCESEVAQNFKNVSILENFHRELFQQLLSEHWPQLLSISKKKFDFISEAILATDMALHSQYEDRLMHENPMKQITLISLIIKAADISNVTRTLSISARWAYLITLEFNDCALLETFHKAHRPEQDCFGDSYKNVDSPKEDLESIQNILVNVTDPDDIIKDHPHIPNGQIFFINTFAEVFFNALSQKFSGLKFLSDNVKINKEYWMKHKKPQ

[2] = molecular target: T1, yPDE2 (high-affinity phosphodiesterase type 2); assay: HPLC-UV assay of cAMP hydrolysis; Lineweaver-Burk and Km app/Km plot at several inhibitor concentrations; type: biochemical; settings: read-out: Inhibitors

Ki [1]	Ki [2]	SMILES
50 ± 5 µM		Oc1cc(O)cc(/C=C/c2ccc(O)c(O)c2)c1 [piceatannol]
	63 ± 3 µM	Oc1ccc(/C=C/c2cc(O)cc(O)c2)cc1 [resveratrol]
0.3 ± 0.02 µM		O=C(Nc1c(Cl)cncc1Cl)c1ccc(OC(F)F)c(OCC2CC2)c1 [roflumilast]

SMILES	Ki [1]	Ki [2]
Oc1cc(O)cc(/C=C/c2ccc(O)cc2O)c1 [oxyresveratrol]	46 ± 4 µM	
